What was measured:
Parameters in all cases: key: 0: little difference in the degree of germination or growth between the treated plants and the untreated plants at the time of examination; 10: the treated plants died completely or their germination or growth was completely inhibited
velvetleaf [1] = assay: Test Example 4: soil surface treatment on upland field (Table 5); assay type: in vivo, Abutilon theophrasti; conditions: 500 g/ha active ingredient, examined 12 days after application, index 0-10
From the text: (§1) In the examples, the compounds are identified by the Compound Numbers as in Tables 1 to 3. […] A cylindrical plastic pot having a diameter of 10 cm and a depth of 10 cm was filled with soil and seeded ivyleaf morningglory, velvetleaf and barnyardgrass. Then each of compounds listed below was formulated into an emulsifiable concentrate according to Formulation Example 2 and then diluted to the prescribed amount with water and dilution was uniformly sprayed over the surface of the soil with sprayer at the rate of 1000 liters per hectare. After the application, the test plants were grown in a greenhouse for 12 days, and the herbicidal activity was examined.

large crabgrass = assay: Test Example 5: foliar treatment on upland field (Table 6); assay type: in vivo, Digitaria sanguinalis; conditions: 125 g/ha, 19 days after application, index 0 to 10
Method: In the examples, the compounds are identified by the Compound Numbers as in Tables 1 to 3. […] A pot for plug seedlings seeded with large crabgrass. The test plant was grown in a greenhouse for 14 days, then transplanted into a plastic pot having an area of 17×12 cm^2 and a depth of 7 cm, and further the test plants were grown in the greenhouse for 8 days. Then each of compounds listed below was formulated into an emulsifiable concentrate according to Formulation Example 2 and then diluted to the prescribed amount with water containing a spreading agent and the dilution was uniformly sprayed over the foliage of the test plants with sprayer at a rate of 1000 liters per hectare. After the application, the test plants were grown in the greenhouse for 19 days, and the herbicidal activity were determined.

barnyardgrass [2] = assay: Test Example 4: soil surface treatment on upland field (Table 5); assay type: in vivo, Echinochloa crus-galli; conditions: 500 g/ha active ingredient, examined 12 days after application, index 0-10
From the text: as §1

barnyardgrass [3] = assay: Test Example 3: foliar treatment on upland field (Table 4); assay type: in vivo, Echinochloa crus-galli; conditions: examined 16 days after application, index 0-10
Method: (§2) In the examples, the compounds are identified by the Compound Numbers as in Tables 1 to 3. […] A cylindrical plastic pot having a diameter of 10 cm and a depth of 10 cm was filled with soil and seeded with ivyleaf momingglory, velvetleaf and barnyardgrass. These test plants were grown in a greenhouse for 10 days. Then each of compounds listed below was formulated into an emulsifiable concentrate according to Formulation Example 2 and then diluted to the prescribed amount with water containing a spreading agent and the dilution was uniformly sprayed over the foliage of the test plants with sprayer at a rate of 1000 liters per hectare. After the application, the test plants were grown in the greenhouse for 16 days, and the herbicidal activity were determined.

velvetleaf [4] = assay: as above; assay type: in vivo, Abutilon theophrasti; conditions: examined 16 days after application, index 0-10
Method: as §2

ivyleaf morningglory [5] = assay: as above; assay type: in vivo, Ipomoea hederacea; conditions: examined 16 days after application, index 0-10
Method: as §2

ivyleaf morningglory [6] = assay: Test Example 4: soil surface treatment on upland field (Table 5); assay type: in vivo, Ipomoea hederacea; conditions: 500 g/ha active ingredient, examined 12 days after application, index 0-10
From the text: as §1

Compound	Herbicidal effect Velvetleaf (velvetleaf [1])	Herbicidal effect Large crabgrass (large crabgrass)	Herbicidal effect Barnyardgrass (barnyardgrass [2])	Herbicidal effect Barnyardgrass (barnyardgrass [3]; 125 g/ha active ingredient)	Herbicidal effect Velvetleaf (velvetleaf [4]; 125 g/ha active ingredient)	Herbicidal effect Ivyleaf morningglory (ivyleaf morningglory [5]; 125 g/ha active ingredient)	Herbicidal effect Ivyleaf morningglory (ivyleaf morningglory [6])	Herbicidal effect Barnyardgrass (barnyardgrass [3]; 32 g/ha active ingredient)	Herbicidal effect Velvetleaf (velvetleaf [4]; 32 g/ha active ingredient)	Herbicidal effect Ivyleaf morningglory (ivyleaf morningglory [5]; 32 g/ha active ingredient)
COC(=O)C(C)Oc1ccc(C(Oc2cc(-n3c(=O)cc(C(F)(F)F)n(C)c3=O)c(F)cc2Cl)c2ccccc2)cc1 (centres unmarked) [Compound 1-246, Methyl 2-[4-({2-chloro-4-fluoro-5-[3-methyl-2,6-dioxo-4-(trifluoromethyl)-1,2,3,6-tetrahydropyrimidine-1-yl]phenoxy}(phenyl)methyl)phenoxy]propionate]	10	10	10	8	10	10	8	–	–	–
COC(=O)COc1cccc(COc2cc(-n3c(=O)cc(C(F)(F)F)n(C)c3=O)c(F)cc2Cl)c1 [Compound 2-11, Methyl 2-[3-({2-chloro-4-fluoro-5-[3-methyl-2,6-dioxo-4-(trifluoromethyl)-1,2,3,6-tetrahydropyrimidine-1-yl]phenoxy}methyl)phenoxy]acetate]	10	10	9	8	10	10	10	–	–	–
COC(=O)C(C)Oc1ccc(COc2cc(-n3c(=O)cc(C(F)(F)F)n(C)c3=O)c(F)cc2Cl)cc1C (centres unmarked) [Compound 1-101, Methyl 2-[4-({2-chloro-4-fluoro-5-[3-methyl-2,6-dioxo-4-(trifluoromethyl)-1,2,3,6-tetrahydropyrimidine-1-yl]phenoxy}methyl)-2-methylphenoxy]propionate]	10	10	10	10	10	10	10	–	–	–
COC(=O)C(C)Oc1c(Br)cc(COc2cc(-n3c(=O)cc(C(F)(F)F)n(C)c3=O)c(F)cc2Cl)cc1OC (centres unmarked) [Compound 1-161, Methyl 2-[2-bromo-4-({2-chloro-4-fluoro-5-[3-methyl-2,6-dioxo-4-(trifluoromethyl)-1,2,3,6-tetrahydropyrimidine-1-yl]phenoxy}methyl)-6-methoxyphenoxy]propionate]	10	10	4	8	10	10	7	–	–	–
CCC(Oc1cc(-n2c(=O)cc(C(F)(F)F)n(C)c2=O)c(F)cc1Cl)c1ccc(OC(C)C(=O)OC)cc1 (centres unmarked) [Compound 1-213, Methyl 2-[4-(1-{2-chloro-4-fluoro-5-[3-methyl-2,6-dioxo-4-(trifluoromethyl)-1,2,3,6-tetrahydropyrimidine-1-yl]phenoxy}propyl)phenoxy]propionate]	10	10	10	10	10	10	10	–	–	–
COC(=O)C(C)Oc1cc(COc2cc(-n3c(=O)cc(C(F)(F)F)n(C)c3=O)c(F)cc2Cl)ccc1C (centres unmarked) [Compound 2-101, Methyl 2-[5-({2-chloro-4-fluoro-5-[3-methyl-2,6-dioxo-4-(trifluoromethyl)-1,2,3,6-tetrahydropyrimidine-1-yl]phenoxy}methyl)-2-methylphenoxy]propionate]	10	10	10	10	10	10	10	–	–	–
COC(=O)C(C)Oc1ccc(Cl)c(COc2cc(-n3c(=O)cc(C(F)(F)F)n(C)c3=O)c(F)cc2Cl)c1Cl (centres unmarked) [Compound 2-161, Methyl 2-[2,4-dichloro-3-({2-chloro-4-fluoro-5-[3-methyl-2,6-dioxo-4-(trifluoromethyl)-1,2,3,6-tetrahydropyrimidine-1-yl]phenoxy}methyl)phenoxy]propionate]	10	10	5	10	10	10	6	–	–	–
COC(=O)C(C)Oc1cccc(C(C)Oc2cc(-n3c(=O)cc(C(F)(F)F)n(C)c3=O)c(F)cc2Cl)c1 (centres unmarked) [Compound 2-21, methyl 2-[3-(1-{2-chloro-4-fluoro-5-[3-methyl-2,6-dioxo-4-(trifluoromethyl)-1,2,3,6-tetrahydropyrimidine-1-yl]phenoxy}ethyl)phenoxy]propionate]	10	10	10	–	–	–	10	10	10	10
COC(=O)C(C)Oc1ccc(COc2cc(-n3c(=O)cc(C(F)(F)F)n(C)c3=O)c(F)cc2Cl)c(F)c1 (centres unmarked) [Compound 1-242, Methyl 2-[4-({2-chloro-4-fluoro-5-[3-methyl-2,6-dioxo-4-(trifluoromethyl)-1,2,3,6-tetrahydropyrimidine-1-yl]phenoxy}methyl)-3-fluorophenoxy]propionate]	10	10	10	10	10	10	10	–	–	–
CCOC(=O)C(C)Oc1ccc(COc2cc(-n3c(=O)cc(C(F)(F)F)n(C)c3=O)c(F)cc2Cl)cc1Cl (centres unmarked) [Compound 1-42, Ethyl 2-[2-chloro-4-({2-chloro-4-fluoro-5-[3-methyl-2,6-dioxo-4-(trifluoromethyl)-1,2,3,6-tetrahydropyrimidine-1-yl]phenoxy}methyl)phenoxy]propionate]	10	10	8	10	10	10	10	–	–	–
COC(=O)C(C)Oc1ccc(C(C)Oc2cc(-n3c(=O)cc(C(F)(F)F)n(C)c3=O)c(F)cc2Cl)cc1 (centres unmarked) [Compound 1-21, Methyl 2-[4-(1-{2-chloro-4-fluoro-5-[3-methyl-2,6-dioxo-4-(trifluoromethyl)-1,2,3,6-tetrahydropyrimidine-1-yl]phenoxy}ethyl)phenoxy]propionate]	10	10	10	10	10	10	10	–	–	–

Reference: patent US6664214B1, “Uracil compounds and use thereof” (Sumitomo Chemical Company, Limited, priority 1999, dated 2003)
